In ChEMBL document CHEMBL1914297, “Regulators of G protein signaling (RGS) proteins as drug targets: modulating G-protein-coupled receptor (GPCR) signal transduction” (J Med Chem, 2011):
Where a SMILES comes first, the peptide text is derived from it. Bridges are numbered along the chain shown (N, C = ends).

Columns and labels:
Homo sapiens [1] = organism: Homo sapiens; test: Selectivity ratio of IC50 for human RGS4 expressed in Escherichia coli BL21 (DE3) to IC50 for human RGS8 expressed in Escherichia coli BL21 (DE3)
Homo sapiens [2] = organism: Homo sapiens; test: Selectivity ratio of IC50 for human RGS4 expressed in Escherichia coli BL21 (DE3) to IC50 for human RGS16 expressed in Escherichia coli BL21 (DE3)
[3] = biological target: Regulator of G-protein signaling 4 (Homo sapiens) (UniProt P49798); test: Inhibition of RGS4 GTPase accelrating activity
Chain of Regulator of G-protein signaling 4 (Homo sapiens) (P49798 whole entry, looked up): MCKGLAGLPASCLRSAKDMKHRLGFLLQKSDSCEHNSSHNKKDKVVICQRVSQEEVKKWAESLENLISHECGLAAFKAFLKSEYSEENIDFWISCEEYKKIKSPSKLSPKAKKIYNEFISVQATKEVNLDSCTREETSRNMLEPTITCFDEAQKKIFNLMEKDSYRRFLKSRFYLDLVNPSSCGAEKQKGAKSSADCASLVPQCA

[4] = Selectivity for RGS4 over RGS16
[5] = Selectivity for RGS4 over RGS8

SMILES | Ratio IC50 (Homo sapiens [1]) | Ratio IC50 (Homo sapiens [2]) | INH [3] [µM] | Selectivity ratio [4] | Selectivity ratio [5]
Cc1cccn2c(=O)c(/C=C(\C#N)c3nc4ccccc4s3)c(Oc3ccc(F)cc3)nc12 | 10 | 10 | – | – | –
Cc1cccc(Oc2nc3c(C)cccn3c(=O)c2/C=C(\C#N)c2nc3ccccc3s2)c1 | 10 | 10 | – | – | –
CC[C@H](C)[C@@H]1NC(=O)CNC(=O)[C@H]([C@@H](C)O)NC(=O)[C@@H](NC(=O)[C@H](CCCCN)NC(=O)[C@@H](NC(C)=O)C(C)C)CSSC[C@@H](C(=O)N[C@@H](CCC(=O)O)C(N)=O)NC1=O (Ac-VKCTGICE-NH2; disulfide 3-7) | – | – | 26 | – | –
Cc1ccc(-n2sc(=O)n(Cc3ccc(F)cc3)c2=O)cc1 | – | – | – | 100 | 100
